Laboratory results taken from ChEMBL document CHEMBL3091298, “Bis-phosphonium salts of pyridoxine: the relationship between structure and antibacterial activity” (Bioorg Med Chem, 2013).
In brackets after ≈: the same amount, converted by molar mass.

Tests used:
[1] = (§1) Cytotoxicity against HEK293 cells after 72 hrs by MTT assay; format: cell-based; conditions: human, HEK293 cells
Klebsiella pneumoniae = assay: Antibacterial activity against Klebsiella pneumoniae after 18 to 24 hrs; format: functional
Proteus sp. = assay: Antibacterial activity against Proteus sp. after 18 to 24 hrs; format: functional; conditions: Proteus sp. (in: enterobacteria)
[2] = tested on: Staphylococcus epidermidis; assay: Antibacterial activity against Staphylococcus epidermidis after 18 to 24 hrs; format: functional
Staphylococcus aureus = assay: Antibacterial activity against Staphylococcus aureus after 18 to 24 hrs; format: functional
[3] = Genotoxicity in uvrA-deficient Escherichia coli assessed as survival at 1 ug/ml after 6 hrs by DNA-repair test; format: toxicity, organism-based; conditions: read-out: Survival
[4] = Genotoxicity in uvrA-deficient Escherichia coli assessed as survival at 10 ug/ml after 6 hrs by DNA-repair test; format: toxicity, organism-based; conditions: read-out: Survival
[5] = Genotoxicity in uvrA-deficient Escherichia coli assessed as survival at 100 ug/ml after 6 hrs by DNA-repair test; format: toxicity, organism-based; conditions: read-out: Survival
[6] = Genotoxicity in polA-deficient Escherichia coli assessed as survival at 1 ug/ml after 6 hrs by DNA-repair test; format: toxicity, organism-based; conditions: read-out: Survival
[7] = Genotoxicity in polA-deficient Escherichia coli assessed as survival at 10 ug/ml after 6 hrs by DNA-repair test; format: toxicity, organism-based; conditions: read-out: Survival
[8] = Genotoxicity in polA-deficient Escherichia coli assessed as survival at 100 ug/ml after 6 hrs by DNA-repair test; format: toxicity, organism-based; conditions: read-out: Survival
[9] = Genotoxicity in recA-deficient Escherichia coli assessed as survival at 1 ug/ml after 6 hrs by DNA-repair test; format: toxicity, organism-based; conditions: read-out: Survival
[10] = Genotoxicity in recA-deficient Escherichia coli assessed as survival at 100 ug/ml after 6 hrs by DNA-repair test; format: toxicity, organism-based; conditions: read-out: Survival
[11] = Genotoxicity in recA-deficient Escherichia coli assessed as survival at 10 ug/ml after 6 hrs by DNA-repair test; format: toxicity, organism-based; conditions: read-out: Survival
Salmonella typhimurium [12] = assay: Mutagenic activity in Salmonella typhimurium TA100 assessed as increase in number of revertants at 1 ug/ml by Ames test relative to solvent control; format: toxicity, organism-based; conditions: salmonella enterica subsp. enterica serovar typhimurium
Salmonella typhimurium [13] = assay: Mutagenic activity in Salmonella typhimurium TA100 assessed as increase in number of revertants at 10 ug/ml by Ames test relative to solvent control; format: toxicity, organism-based; conditions: salmonella enterica subsp. enterica serovar typhimurium
Salmonella typhimurium [14] = assay: Mutagenic activity in Salmonella typhimurium TA100 assessed as increase in number of revertants at 100 ug/ml by Ames test relative to solvent control; format: toxicity, organism-based; conditions: salmonella enterica subsp. enterica serovar typhimurium
HEK293 = assay: as §1; format: cell-based; conditions: human, hek293, 72 h

| Structure (SMILES) | CC50 at 72 h [1] [µg/mL] | MIC (Klebsiella pneumoniae) [µg/mL] | MIC (Proteus sp.) [µg/mL] | MIC [2] [µg/mL] | MIC (Staphylococcus aureus) [µg/mL] | further results |
| --- | --- | --- | --- | --- | --- | --- |
| CCC1OCc2c(C[P+](c3ccccc3)(c3ccccc3)c3ccccc3)c(C[P+](c3ccccc3)(c3ccccc3)c3ccccc3)nc(C)c2O1.[Cl-].[Cl-] (centres undefined) | 4 | > 1000 | > 1000 | 10 | 10 | – |
| CCCCCCCC1OCc2c(C[P+](c3ccccc3)(c3ccccc3)c3ccccc3)c(C[P+](c3ccccc3)(c3ccccc3)c3ccccc3)nc(C)c2O1.[Cl-].[Cl-] (centres undefined) | 0.5 | 1000 | > 1000 | 10 | 10 | – |
| Cc1nc2c(c3c1OC(C)(C)OC3)C[P+](c1ccccc1)(c1ccccc1)CC[P+](c1ccccc1)(c1ccccc1)C2.[Cl-].[Cl-] | – | > 1000 | > 1000 | 100 | 125 | – |
| Cc1cccc([P+](Cc2nc(C)c(O)c(CO)c2C[P+](c2cccc(C)c2)(c2cccc(C)c2)c2cccc(C)c2)(c2cccc(C)c2)c2cccc(C)c2)c1.Cl.[Cl-].[Cl-] | – | > 1000 | > 1000 | 12.5 | 12.5 | – |
| Cc1nc(C[P+](c2ccc(F)cc2)(c2ccc(F)cc2)c2ccc(F)cc2)c(C[P+](c2ccc(F)cc2)(c2ccc(F)cc2)c2ccc(F)cc2)c2c1OC(C)(C)OC2.[Cl-].[Cl-] | – | > 1000 | > 1000 | 50 | 50 | – |
| CCCC[P+](CCCC)(CCCC)Cc1nc(C)c2c(c1C[P+](CCCC)(CCCC)CCCC)COC(C)(C)O2.[Cl-].[Cl-] | 200 | > 1000 | > 1000 | 1.25 | 1.25 | viability at 6 h, 1 ug/ml [3]: 109%; viability at 6 h, 10 ug/ml [4]: 115%; viability at 6 h, 100 ug/ml [5]: 66.1%; viability at 6 h, 1 ug/ml [6]: 112%; viability at 6 h, 10 ug/ml [7]: 118%; viability at 6 h, 100 ug/ml [8]: 57.8%; viability at 6 h, 1 ug/ml [9]: 88.6%; viability at 6 h, 100 ug/ml [10]: 77.8%; viability at 6 h, 10 ug/ml [11]: 82.9%; Ratio (Salmonella typhimurium [12]): 0.82; Ratio (Salmonella typhimurium [13]): 1.21; Ratio (Salmonella typhimurium [14]): 1.04 |
| Cc1cccc([P+](Cc2nc(C)c3c(c2C[P+](c2cccc(C)c2)(c2cccc(C)c2)c2cccc(C)c2)COC(C)(C)O3)(c2cccc(C)c2)c2cccc(C)c2)c1.[Cl-].[Cl-] | 13 | 1000 | > 1000 | 1.25 | 1.25 | – |
| Cc1nc2c(c(CO)c1O)C[P+](c1ccccc1)(c1ccccc1)CC[P+](c1ccccc1)(c1ccccc1)C2.Cl.[Cl-].[Cl-] | – | > 1000 | > 1000 | 500 | 500 | – |
| Cc1nc(C[P+](c2ccccc2)(c2ccccc2)c2ccccc2)c(C[P+](c2ccccc2)(c2ccccc2)c2ccccc2)c2c1OC(C)(C)OC2.[Br-].[Br-] | – | > 1000 | > 1000 | 2.5 | 1.25 | CC50 (HEK293): 27.5 µg/mL |
| Cc1nc(C[P+](c2ccccc2)(c2ccccc2)c2ccccc2)c(C[P+](c2ccccc2)(c2ccccc2)c2ccccc2)c2c1OC(C)(C)OC2.[Cl-].[Cl-] | – | > 1000 | > 1000 | 5 | 5 | viability at 6 h, 1 ug/ml [3]: 103%; viability at 6 h, 10 ug/ml [4]: 114%; viability at 6 h, 100 ug/ml [5]: 68.9%; viability at 6 h, 1 ug/ml [6]: 114%; viability at 6 h, 10 ug/ml [7]: 112%; viability at 6 h, 100 ug/ml [8]: 59.4%; viability at 6 h, 1 ug/ml [9]: 88.8%; viability at 6 h, 100 ug/ml [10]: 70.1%; viability at 6 h, 10 ug/ml [11]: 79.3%; Ratio (Salmonella typhimurium [12]): 0.76; Ratio (Salmonella typhimurium [13]): 0.88; CC50 (HEK293): 72 µg/mL; Ratio (Salmonella typhimurium [14]): 0.85 |
| Cc1nc(C[P+](c2ccccc2)(c2ccccc2)c2ccccc2)c(C[P+](c2ccccc2)(c2ccccc2)c2ccccc2)c2c1OC(C)(C)OC2.[I-].[I-] | – | > 1000 | > 1000 | 10 | 10 | – |
| Cc1nc(C[P+](c2cccs2)(c2cccs2)c2cccs2)c(C[P+](c2cccs2)(c2cccs2)c2cccs2)c(CO)c1O.Cl.[Cl-].[Cl-] | – | > 1000 | > 1000 | > 1000 | 1000 | – |
| Cc1nc(C[P+](c2ccccc2)(c2ccccc2)c2ccccc2)c(CO)c2c1OC(C)(C)OC2.[Br-] | – | > 1000 | > 1000 | 10 | 10 | – |
| Cc1nc(C[P+](c2cccs2)(c2cccs2)c2cccs2)c(C[P+](c2cccs2)(c2cccs2)c2cccs2)c2c1OC(C)(C)OC2.[Cl-].[Cl-] | – | > 1000 | > 1000 | 100 | 100 | – |
| CCCC1OCc2c(C[P+](c3ccc(C)cc3)(c3ccc(C)cc3)c3ccc(C)cc3)c(C[P+](c3ccc(C)cc3)(c3ccc(C)cc3)c3ccc(C)cc3)nc(C)c2O1.[Cl-].[Cl-] (centres undefined) | 1 | 1000 | 1000 | 2.5 | 2.5 | – |
| CCCC1OCc2c(C[P+](c3ccccc3)(c3ccccc3)c3ccccc3)c(C[P+](c3ccccc3)(c3ccccc3)c3ccccc3)nc(C)c2O1.[Cl-].[Cl-] (centres undefined) | 3 | > 1000 | > 1000 | 1 | 1 | viability at 6 h, 1 ug/ml [3]: 113%; viability at 6 h, 10 ug/ml [4]: 116%; viability at 6 h, 100 ug/ml [5]: 64.4%; viability at 6 h, 1 ug/ml [6]: 110%; viability at 6 h, 10 ug/ml [7]: 108%; viability at 6 h, 100 ug/ml [8]: 57.7%; viability at 6 h, 1 ug/ml [9]: 87.8%; viability at 6 h, 100 ug/ml [10]: 80.4%; viability at 6 h, 10 ug/ml [11]: 83.1%; Ratio (Salmonella typhimurium [12]): 0.91; Ratio (Salmonella typhimurium [13]): 1.12; Ratio (Salmonella typhimurium [14]): 1.08 |
| CN[C@H](CC(C)C)C(=O)N[C@H]1C(=O)N[C@@H](CC(N)=O)C(=O)N[C@H]2C(=O)N[C@H]3C(=O)N[C@H](C(=O)N[C@H](C(=O)O)c4cc(O)cc(O)c4-c4cc3ccc4O)[C@H](O)c3ccc(c(Cl)c3)Oc3cc2cc(c3O[C@@H]2O[C@H](CO)[C@@H](O)[C@H](O)[C@H]2O[C@H]2C[C@](C)(N)[C@H](O)[C@H](C)O2)Oc2ccc(cc2Cl)[C@H]1O [VANCOMYCIN] | > 1000 | > 1000 | > 1000 | 2.5 (≈ 1.73 µM) | 2.5 (≈ 1.73 µM) | – |
| Cc1nc(C[P+](c2ccccc2)(c2ccccc2)c2ccccc2)c(C[P+](c2ccccc2)(c2ccccc2)c2ccccc2)c2c1OC(C)(C)OC2.O=[N+]([O-])[O-].O=[N+]([O-])[O-] | – | 1000 | > 1000 | 100 | 100 | – |
| Cc1nc(C[P+](c2ccc(F)cc2)(c2ccc(F)cc2)c2ccc(F)cc2)c(C[P+](c2ccc(F)cc2)(c2ccc(F)cc2)c2ccc(F)cc2)c(CO)c1O.Cl.[Cl-].[Cl-] | – | > 1000 | > 1000 | 1000 | 1000 | – |
| CCCCC1OCc2c(C[P+](c3ccccc3)(c3ccccc3)c3ccccc3)c(C[P+](c3ccccc3)(c3ccccc3)c3ccccc3)nc(C)c2O1.[Cl-].[Cl-] (centres undefined) | 2 | 1000 | > 1000 | 10 | 5 | – |
| Cc1nc(C[P+](c2ccccc2)(c2ccccc2)c2ccccc2)c(C[P+](c2ccccc2)(c2ccccc2)c2ccccc2)c2c1OC(C)OC2.[Cl-].[Cl-] (centres undefined) | 33.9 | > 1000 | > 1000 | 10 | 12.5 | – |
| Cc1nc(C[P+](c2ccccc2)(c2ccccc2)c2ccccc2)c(C[P+](c2ccccc2)(c2ccccc2)c2ccccc2)c2c1OC(C(C)C)OC2.[Cl-].[Cl-] (centres undefined) | 2.57 | > 1000 | > 1000 | 5 | 10 | – |
| Cc1ccc([P+](Cc2nc(C)c3c(c2C[P+](c2ccc(C)cc2)(c2ccc(C)cc2)c2ccc(C)cc2)COC(C)(C)O3)(c2ccc(C)cc2)c2ccc(C)cc2)cc1.[Cl-].[Cl-] | 29.5 | > 1000 | > 1000 | 1 | 1 | – |
| Cc1ccc([P+](Cc2nc(C)c(O)c(CO)c2C[P+](c2ccc(C)cc2)(c2ccc(C)cc2)c2ccc(C)cc2)(c2ccc(C)cc2)c2ccc(C)cc2)cc1.Cl.[Cl-].[Cl-] | – | > 1000 | > 1000 | > 1000 | > 1000 | – |
| CCCCCC1OCc2c(C[P+](c3ccccc3)(c3ccccc3)c3ccccc3)c(C[P+](c3ccccc3)(c3ccccc3)c3ccccc3)nc(C)c2O1.[Cl-].[Cl-] (centres undefined) | 1 | 1000 | > 1000 | 5 | 5 | – |
| CCCC[P+](CCCC)(CCCC)Cc1nc(C)c(O)c(CO)c1C[P+](CCCC)(CCCC)CCCC.Cl.[Cl-].[Cl-] | – | > 1000 | > 1000 | 1000 | 1000 | – |
